In US8748101B2, “Methods, compositions, and devices utilizing MicroRNA to determine physiological conditions” (Battelle Memorial Institute, priority 2008, dated 2014):

Legend:
male C57/B6 mice [1] = test: microRNA profile of plasma, acetaminophen treatment group vs control group; format: in vivo; details: 300 mg/kg single intraperitoneal injection, 24 hours post exposure, FIG. 3
Description: Approximately, 800 μl of QIAzol lysis reagent was added to 200 μl liquid sample. The sample was mixed in a tube followed by adding 200 μl of chloroform. After mixing rigorously for 15 seconds, the sample was then centrifuged at 12,000×g for 15 minutes. The upper aqueous phase was carefully transferred to a new collection tube, and 1.5 total volumes of ethanol was added. The sample was then applied directly to a glass membrane containing column and the RNA was bound and purified by three contiguous washing to remove unwanted contamination. The immobilized RNA was then collected from the membrane with a low salt elution buffer.
The male C57/B6 mice were randomly grouped into two groups, a treatment group (3 animals) and control group (4 animals). […] Mice were sacrificed at 24 hours post exposure, the plasma samples were collected and RNA was isolated.
The expression levels of microRNA sequences in the serum were used to make a microRNA profile. The differentially expressed microRNA sequences between the treatment group and the control group were clustered with the Hierarchical clustering method and is shown in FIG. 3.

male C57/B6 mice [2] = details: mouse, in vivo
Description: Quantitative PCR (QPCR) with microRNA specific primer sets were used to confirm the results from array hybridization. In brief, a SYBR Green based method, miScript real-time PCR (Qiagen Inc. Valencia, Calif., USA), or TaqMan primer set from Apply Biosystems, was used with 50 ng of total RNA from each sample. The first strand cDNA was generated according to the manufacturer's instruction. Approximately 2.5 ng of cDNA was used in the PCR reaction. The yield of 18 to 20 base pair fragments (based on SYBR Green intensity) corresponding to the specific microRNA species was monitored with the 7900HT fast real-time PCR system from Applied Biosystems (Applied Biosystems, Foster City, Calif.). QPCR results were analyzed by SDS 2.2.2, with a manual CT threshold value of 0.2.
The male C57/B6 mice were randomly grouped into nine different groups with 4 animals in each group. […] Mice were sacrificed and plasma samples were collected at 1, 3 and 24 hours post-exposure. The nine groups were: 1) 1 hour control; 2) 1 hour treatment 1; 3) 1 hour treatment 2; 4) 1 hour treatment 3; 5) 3 hour control; 6) 3 hour treatment 1; 7) 3 hour treatment 2; 8) 3 hour treatment 3; and 9) 24 hour treatment 3. […] The expression levels of two different microRNA sequences, mir-486 and mir-122, in the serum were profiled by quantitative polymerase chain reactions (Q-PCR). […]

mir-486 and mir-122 intensities at one hour (male C57/B6 mice [2]): Clear changes
Structure (SMILES): CC(=O)Nc1ccc(O)cc1 [acetaminophen]
levels of microRNA sequences in serum/plasma, treatment vs control (male C57/B6 mice [1]): levels of certain microRNA sequences in the serum could be used as an indication of the acetaminophen toxicity
